In patent US9079913B2, “Spiro-oxindole MDM2 antagonists” (The Regents of the University of Michigan, priority 2009, dated 2015):
“And” between values parts separate entries of the source, which are not always exact repeats. Equal entries are not always repeated.

Assays:
[1] = Pharmacokinetic studies in Beagle dogs; type: in vivo
[2] = Pharmacokinetic studies in Cynomolgus monkeys; type: in vivo; settings: for AUC(0-t): animals and MEAN
[3] = test system: SJSA-1 xenograft tumors; test: In vivo efficacy, SJSA-1 xenograft model (tumor volume); parameters: species or system C.B-17 SCID mice; settings: PO 300 mg/kg
[4] = Metabolites in rat plasma; type: in vivo; settings: rats, MI-219 i.v. 5 mg/kg
Method: Plasma was harvested by centrifuging the blood at 13000 rpm for 5 min at 4° C. and stored frozen at −80±10° C. until analysis.
Based on the similarities and difference among their mass spectra, the possible fragmentation pathways of protonated MI-219 and several lead compounds were proposed. Three characteristic product ions were selected to generate 240 ion channels for MRM screening by using Metabolite ID software (Applied Biosystems), including 40 common biotransformation processes. To search all the metabolites, two other scan modes, EMS full scan and precursor scan were also conducted. Only the components detected in the sample and absent in all the control samples were regarded as possible metabolites. To identify the possible metabolites, both the sample and controls were injected on the LC-MS for EPI and MS^3 scans to obtain their MS^2 and MS^3 spectra.

[5] = test system: LnCAP human xenograft tumors; settings: mice bearing LnCAP xenograft, oral 200-300 mg/kg daily or twice a day, 2 weeks; cited from earlier work
[6] = Microsomal stability study, negative control incubation; type: in vitro ADME
[7] = male Cynomolgus monkeys, IV (10 mg/kg)
[8] = male Cynomolgus monkeys, IV (10 mg/kg), mean
[9] = male Cynomolgus monkeys, Oral (50 mg/kg)
[10] = male Cynomolgus monkeys, Oral (50 mg/kg), mean

Substance: MI-219
- oral bioavailability in dogs (in words) [1]: orally bioavailable
- AUC ([1]; 10 mg/kg oral dosing): 7947 ± 2396 ng·h/mL
- MRT ([1]; IV 2.0 mg/kg): 1.22 h and 1.81 h and 1.87 h
- Plasma Concentration ([1]; IV 2.0 mg/kg, 0.117 h, dogs and Mean): 4069 ng/mL and 7668 ng/mL
- Plasma Concentration ([1]; IV 2.0 mg/kg, 0.117 h, dogs and Mean, mean): 5868 ng/mL
- Plasma Concentration ([1]; IV 2.0 mg/kg, 0.20 h): 2623 ng/mL and 2272 ng/mL and 3918 ng/mL
- Plasma Concentration ([1]; IV 2.0 mg/kg, 0.20 h, mean): 2938 ng/mL
- Plasma Concentration ([1]; IV 2.0 mg/kg, 0.5 h): 1888 ng/mL and 1192 ng/mL and 1795 ng/mL
- Plasma Concentration ([1]; IV 2.0 mg/kg, 0.5 h, mean): 1625 ng/mL
- Plasma Concentration ([1]; IV 2.0 mg/kg, 1.0 h): 853 ng/mL and 704 ng/mL and 1044 ng/mL
- Plasma Concentration ([1]; IV 2.0 mg/kg, 1.0 h, mean): 867 ng/mL
- Plasma Concentration ([1]; IV 2.0 mg/kg, 3.0 h): 331 ng/mL and 402 ng/mL
- Plasma Concentration ([1]; IV 2.0 mg/kg, 3.0 h, mean): 367 ng/mL
- Plasma Concentration ([1]; IV 2.0 mg/kg, 4.0 h): 256 ng/mL and 188 ng/mL and 248 ng/mL
- Plasma Concentration ([1]; IV 2.0 mg/kg, 4.0 h, mean): 231 ng/mL
- Plasma Concentration ([1]; IV 2.0 mg/kg, 6.0 h): 114.3 ng/mL and 81.1 ng/mL and 119 ng/mL
- Plasma Concentration ([1]; IV 2.0 mg/kg, 6.0 h, mean): 105 ng/mL
- Plasma Concentration ([1]; IV 2.0 mg/kg, 8.0 h): 52.2 ng/mL and 39.7 ng/mL and 57.8 ng/mL
- Plasma Concentration ([1]; IV 2.0 mg/kg, 8.0 h, mean): 49.9 ng/mL
- Plasma Concentration ([1]; IV 2.0 mg/kg, 12 h): 17.9 ng/mL and 9.75 ng/mL and 19.4 ng/mL
- Plasma Concentration ([1]; IV 2.0 mg/kg, 12 h, mean): 15.7 ng/mL
- T½ ([1]; IV 2.0 mg/kg, dogs and Mean): 4.32 h and 3.00 h and 4.36 h
- T½ ([1]; IV 2.0 mg/kg, dogs and Mean, mean): 3.90 h
- MRT ([1]; IV 2.0 mg/kg, mean): 1.63 h
- AUC(0-t) ([1]; PO 10 mg/kg): 9665 ng·h/mL and 5210 ng·h/mL and 8967 ng·h/mL
- AUC(0-∞) ([1]; PO 10 mg/kg): 9681 ng·h/mL and 5226 ng·h/mL and 8985 ng·h/mL
- Cmax ([1]; PO 10 mg/kg): 3001 ng/mL and 3560 ng/mL and 2119 ng/mL and 3323 ng/mL
- F ([1]; PO 10 mg/kg): 26.1% and 26.8% and 28.6%
- MRT ([1]; PO 10 mg/kg): 3.09 h and 2.71 h and 3.33 h
- Tmax ([1]; PO 10 mg/kg): 0.83 h and 1.0 h and 0.5 h
- Plasma Concentration ([1]; PO 10 mg/kg, 0.5 h, dogs and Mean): 2101 ng/mL and 1842 ng/mL and 3323 ng/mL
- Plasma Concentration ([1]; PO 10 mg/kg, 0.5 h, dogs and Mean, mean): 2422 ng/mL
- Plasma Concentration ([1]; PO 10 mg/kg, 1 h): 3560 ng/mL and 2119 ng/mL and 2999 ng/mL
- Plasma Concentration ([1]; PO 10 mg/kg, 1 h, mean): 2893 ng/mL
- Plasma Concentration ([1]; PO 10 mg/kg, 4 h): 483 ng/mL and 603 ng/mL and 312 ng/mL and 535 ng/mL
- Plasma Concentration ([1]; PO 10 mg/kg, 24 h): 4.05 ng/mL and 3.78 ng/mL and 4.48 ng/mL
- Plasma Concentration ([1]; PO 10 mg/kg, 24 h, mean): 4.10 ng/mL
- T½ ([1]; PO 10 mg/kg, dogs and Mean): 2.77 h and 3.03 h and 2.81 h
- T½ ([1]; PO 10 mg/kg, dogs and Mean, mean): 2.87 h
- AUC(0-t) ([1]; PO 10 mg/kg, mean): 7947 ng·h/mL
- AUC(0-∞) ([1]; PO 10 mg/kg, mean): 7964 ng·h/mL
- MRT ([1]; PO 10 mg/kg, mean): 3.04 h
- oral bioavailability in monkeys (in words) ([2]; Cynomolgus Monkeys): orally bioavailable
- Plasma Concentration ([2]; male Cynomolgus monkeys, IV 10 mg/kg, time point 0.083, animals and Mean): 15043.60 ng/mL and 18669.25 ng/mL
- Plasma Concentration ([2]; male Cynomolgus monkeys, IV 10 mg/kg, time point 0.083, animals and Mean, mean): 16856.43 ng/mL
- Plasma Concentration ([2]; male Cynomolgus monkeys, IV 10 mg/kg, time point 0.1): 18416.30 ng/mL
- Plasma Concentration ([2]; male Cynomolgus monkeys, IV 10 mg/kg, time point 0.25): 4144.21 ng/mL and 4818.06 ng/mL and 6877.15 ng/mL
- Plasma Concentration ([2]; male Cynomolgus monkeys, IV 10 mg/kg, time point 0.25, mean): 5279.81 ng/mL
- Plasma Concentration ([2]; male Cynomolgus monkeys, IV 10 mg/kg, time point 0.5): 2188.67 ng/mL and 3577.55 ng/mL and 3536.46 ng/mL
- Plasma Concentration ([2]; male Cynomolgus monkeys, IV 10 mg/kg, time point 0.5, mean): 3100.89 ng/mL
- Plasma Concentration ([2]; male Cynomolgus monkeys, IV 10 mg/kg, time point 1): 1564.10 ng/mL and 2277.17 ng/mL and 2483.63 ng/mL
- Plasma Concentration ([2]; male Cynomolgus monkeys, IV 10 mg/kg, time point 1, mean): 2108.30 ng/mL
- Plasma Concentration ([2]; male Cynomolgus monkeys, IV 10 mg/kg, time point 2): 985.23 ng/mL and 1277.08 ng/mL and 1539.44 ng/mL
- Plasma Concentration ([2]; male Cynomolgus monkeys, IV 10 mg/kg, time point 2, mean): 1267.25 ng/mL
- Plasma Concentration ([2]; male Cynomolgus monkeys, IV 10 mg/kg, time point 3): 1230.40 ng/mL and 691.83 ng/mL and 834.00 ng/mL
- Plasma Concentration ([2]; male Cynomolgus monkeys, IV 10 mg/kg, time point 3, mean): 918.74 ng/mL
- Plasma Concentration ([2]; male Cynomolgus monkeys, IV 10 mg/kg, time point 4): 348.97 ng/mL and 582.63 ng/mL and 562.45 ng/mL
- Plasma Concentration ([2]; male Cynomolgus monkeys, IV 10 mg/kg, time point 4, mean): 498.02 ng/mL
- Plasma Concentration ([2]; male Cynomolgus monkeys, IV 10 mg/kg, time point 6): 246.12 ng/mL and 211.39 ng/mL and 324.99 ng/mL
- Plasma Concentration ([2]; male Cynomolgus monkeys, IV 10 mg/kg, time point 6, mean): 260.83 ng/mL
- Plasma Concentration ([2]; male Cynomolgus monkeys, IV 10 mg/kg, time point 8): 180.91 ng/mL and 115.94 ng/mL and 202.16 ng/mL
- Plasma Concentration ([2]; male Cynomolgus monkeys, IV 10 mg/kg, time point 8, mean): 166.34 ng/mL
- Plasma Concentration ([2]; male Cynomolgus monkeys, IV 10 mg/kg, time point 24): 5.91 ng/mL and 8.00 ng/mL and 8.34 ng/mL
- Plasma Concentration ([2]; male Cynomolgus monkeys, IV 10 mg/kg, time point 24, mean): 7.42 ng/mL
- AUC(0-∞) [2, 7]: 11647.87 ng·h/mL and 13703.99 ng·h/mL and 10300.28 ng·h/mL
- CLz [2, 7]: 14.3 mL/min/kg and 12.2 mL/min/kg and 16.2 mL/min/kg
- Cmax [2, 7]: 18669.25 ng/mL and 18416.30 ng/mL and 15043.60 ng/mL
- MRT(0-∞) [2, 7]: 2.12 h and 2.44 h and 2.68 h
- T1/2 [2, 7]: 3.25 h and 3.43 h and 3.38 h
- Vz [2, 7]: 4.03 L/kg and 3.62 L/kg and 4.73 L/kg
- AUC(0-t) [2, 7]: 11610.30 ng·h/mL and 13662.84 ng·h/mL and 10271.39 ng·h/mL
- AUC(0-t) [2, 8]: 11848.18 ng·h/mL
- AUC(0-∞) [2, 8]: 11884.05 ng·h/mL
- CLz [2, 8]: 14.2 mL/min/kg
- Cmax [2, 8]: 17376.38 ng/mL
- MRT(0-∞) [2, 8]: 2.41 h
- T1/2 [2, 8]: 3.35 h
- Vz [2, 8]: 4.12 L/kg
- MRT(0-∞) [2, 9]: 6.25 h and 6.38 h and 5.57 h
- T1/2 [2, 9]: 3.03 h and 2.52 h and 3.72 h
- Tmax [2, 9]: 4.00 h and 3.00 h and 3.33 h
- MRT(0-∞) [2, 10]: 6.06 h
- T1/2 [2, 10]: 3.09 h
- Plasma Concentration ([2]; male Cynomolgus monkeys, PO 50 mg/kg, time point 1): 192.53 ng/mL and 186.66 ng/mL and 241.02 ng/mL
- Plasma Concentration ([2]; male Cynomolgus monkeys, PO 50 mg/kg, time point 1, mean): 206.74 ng/mL
- % Tumor Growth Inhib. T/C Control 750 mm^3 D27 ([3]; Exp. No. 1, SJSA-1 xenograft, D27): 44.3%
- % Tumor Growth Inhib. T/C Control 750 mm^3 D24 ([3]; Exp. No. 2, SJSA-1 xenograft, D24): 30.1%
- % Tumor Growth Inhib. T/C Control 750 mm^3 D29 ([3]; Exp. No. 3, SJSA-1 xenograft, D29): 15.8%
- elimination rate from rat plasma (in words) [4]: similar
- tumor growth inhibition (in words) [5]: effective tumor growth inhibition
- Microsomal stability, % remaining ([6]; 0 min): 100.00%
- Microsomal stability, % remaining ([6]; 5 min): 102.63%
- Microsomal stability, % remaining ([6]; 10 min): 105.25%
- Microsomal stability, % remaining ([6]; 15 min): 109.19%
- Microsomal stability, % remaining ([6]; 30 min): 111.07%
- Microsomal stability, % remaining ([6]; 45 min): 104.13%
- Microsomal stability, % remaining ([6]; 60 min): 109.01%
